Test [1] deals with T1, pSLP76 (Phospho-SLP-76 (Ser376)), Jurkat E6-1 cells (Homo sapiens, UniProt Q92918).
T1 construct: read-out phospho-SLP-76 (Ser376) HTRF
The test can be described thus: Phospho-SLP-76 (Ser376) HTRF Assay in Jurkat E6-1 cells. The format is cell-based. Conditions: compound 4 hours, then anti-CD3 20 minutes. On the procedure:
Assay Example 3 Phospho-SLP-76 (Ser376) HTRF Assay
A compound was dissolved in DMSO to 10 mM, and then diluted three-fold with DMSO to 10 dosages in a 96-well plate. Then, 3 μL of the diluted compound sample was transferred to a 96-well plate with 97 μL of cell culture medium, and the plate was shaken for 5 minutes. According to the experimental design diagram, 7.5 μL of the diluted compound sample was transferred to a cell plate. Final concentrations of the compound in this assay were 10000.00, 3333.33, 1111.11, 370.37, 123.46, 41.15, 13.72, 4.57, 1.52 and 0.51 nM.
In this assay, the density of Jurkat E6-1 cells was maintained between 3*10^5 to 3*10^6 cells/mL. The cell culture was replaced with fresh culture medium every 2 to 3 days (depending on the cell density). 30 μL of Jurkat E6-1 (300,000 cells) was added to a 96-well plate and incubated in a 37 °C incubator for 1 hour. Then, according to the experimental design diagram, compounds (6×, 7.5 μL) were added to treat the cells for 4 hours, respectively. After 4 hours, purified anti-human anti-CD3 antibodies (6×, 7.5 μL) were added to treat the cells for 20 minutes. After 20 minutes, 15 μL of cell lysis buffer (4×) was added, and the cells were lysed at 25 °C with shaking (250 rpm) for 1 hour. Then, according to the experimental design diagram, 16 μL of cell lysate was transferred to a 384-well plate using a pipette. After the transfer, 4 μL of antibody detection mixture was added. After being placed at room temperature overnight, the plate was read by EnVision multi-function microplate reader to read the FRET signal (the ratio of HTRF 665/615 was calculated from the readings at 665 nm and 615 nm).
The ratio of the signal at 665 nm to the signal at 615 nm was converted to the percentage of inhibition. Inhibition %=(maximum value−sample value)/(maximum value−minimum value)×100. The minimum value refers to the signal value of a well without anti-CD3 antibody stimulation during the treatment of cells, and the maximum value refers to the signal value of a well with anti-CD3 antibody stimulation but without the compound during the treatment of cells. IC50 values were calculated by XLFit (version 5.3.1.3) in excel. Equation: Y=Bottom+(Top−Bottom)/(1+(IC50/X)^HillSlope).
For orientation: In TR-FRET formats the signal depends on donor and acceptor labels being close together.

The subject of test [2] is human Pan T cells (IL-2 release). Briefly: Human Pan T Cell IL-2 ELISA. The format is cell-based. The procedure: Assay Example 4 Human Pan T Cell IL-2 ELISA
A compound was dissolved in DMSO to 10 mM, and then diluted three-fold with DMSO to 9 dosages in a 96-well plate. Then, 10 μL of the diluted compound sample was transferred to a 96-well plate with 90 μL of cell culture medium, and the plate was shaken for 5 minutes. Then, 5 μL of the diluted compound sample was transferred to a 96-well plate with 120 μL of cell culture medium, and the plate was shaken for 5 minutes. According to the experimental design diagram, 50 μL of the diluted compound sample was transferred to a cell plate. Final concentrations of the compound in this assay were 10000.00, 5000, 2500, 1250, 625, 312.5, 156.25, 78.125 and 39.063 nM.
The assay was conducted in a 96-well plate. On the first day of the assay, Anti-CD3 was added to the 96-well plate and incubated in a 4 °C refrigerator overnight. On the second day of the assay, human Pan T cells were recovered, centrifuged and counted. The cell density was adjusted to 1*10^6 cells/ml. Then, 100 μL of cells were added to the 96-well plate washed with PBS and added with Anti-CD3; according to the experimental design diagram, 50 μL of diluted Anti-CD28 and 50 μL of the diluted compound were added to each well, centrifuged, and the cell plate was placed and incubated in an incubator for 48 hours; after 48 hours, the plate was centrifuged and the supernatant was collected for IL-2 ELISA.
The signal value of light absorption was converted into a multiple. Multiple=sample value/the average value of control wells. The average value of control wells refers to the value measured in wells with DMSO added. EC50 values were calculated by XLFit (version 5.3.1.3) in Excel. Equation: Y=Bottom+(Top−Bottom)/(1+(EC50/X)^HillSlope).

In test [3] the target is HPK1 (Homo sapiens, UniProt Q92918). Briefly: HPK1 HTRF Kinase Assay. The format is biochemical. As to conditions: 1000 μM ATP, 50 nM HPK1, STK1 substrate, 120 minutes. The procedure:
Assay Example 2 HPK1 HTRF Kinase Assay
The assay was performed in a 384-well plate (Greier, Cat #784075) with a total reaction system of 20 μL. 1×kinase buffer (5*enzyme buffer, 5 mM MgCl2, 0.1% BSA, 1 mM DTT), […] and 1000 µM ATP, and 10 μL of Detection Mix (0.25 nM STK antibody, 62.5 nM XL665) were included in the reaction mixture. The reaction was initiated by adding 50 nM HPK1. After 120 minutes of reaction, the assay was terminated by adding 10 μL of Detection Mix. After being incubated at room temperature for 60 minutes, the assay plate was read by EnVision multi-function microplate reader to read the FRET signal (the ratio of HTRF 665/615 was calculated from the readings at 665 nm and 615 nm).
The ratio of the signal at 665 nm to the signal at 615 nm was converted to the percentage of inhibition. Inhibition %=(maximum value−sample value)/(maximum value−minimum value)×100. The minimum value refers to the value measured in a well without enzyme but with DMSO and substrate, and the maximum value refers to the value measured in a well with DMSO, enzyme and substrate. IC50 values were calculated by XLFit (version 5.3.1.3) in Excel. Equation: Y=Bottom+(Top−Bottom)/(1+(IC50/X)^HillSlope).

The mark [4] stands for this setting: Homo sapiens, T-cell, 48 h, Anti-CD3/Anti-CD28, IL-2 ELISA.

T1 sequence (Q92918 whole entry): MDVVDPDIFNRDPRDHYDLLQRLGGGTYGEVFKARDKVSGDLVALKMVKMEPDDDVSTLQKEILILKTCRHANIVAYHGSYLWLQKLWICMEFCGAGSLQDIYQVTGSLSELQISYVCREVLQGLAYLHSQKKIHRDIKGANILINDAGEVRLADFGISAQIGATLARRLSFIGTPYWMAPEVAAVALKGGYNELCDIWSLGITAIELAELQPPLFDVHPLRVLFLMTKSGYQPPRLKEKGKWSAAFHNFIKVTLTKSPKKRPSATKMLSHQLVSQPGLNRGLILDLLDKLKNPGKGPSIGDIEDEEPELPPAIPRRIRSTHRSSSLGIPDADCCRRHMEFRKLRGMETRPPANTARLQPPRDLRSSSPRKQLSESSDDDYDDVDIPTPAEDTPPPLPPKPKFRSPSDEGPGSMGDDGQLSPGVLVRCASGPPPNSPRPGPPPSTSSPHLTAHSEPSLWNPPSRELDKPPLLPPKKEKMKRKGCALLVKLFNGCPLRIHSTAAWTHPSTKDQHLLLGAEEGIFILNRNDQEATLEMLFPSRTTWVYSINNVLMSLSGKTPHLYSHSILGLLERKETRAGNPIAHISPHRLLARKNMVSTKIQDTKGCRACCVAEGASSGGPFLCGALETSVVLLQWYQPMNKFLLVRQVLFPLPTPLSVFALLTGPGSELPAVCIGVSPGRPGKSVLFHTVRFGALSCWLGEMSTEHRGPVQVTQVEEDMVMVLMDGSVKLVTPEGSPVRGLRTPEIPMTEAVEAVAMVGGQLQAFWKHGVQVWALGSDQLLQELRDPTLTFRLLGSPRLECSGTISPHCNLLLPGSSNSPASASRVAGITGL
HPK1, sequence (Q92918 whole entry): as above

The term IC50 denotes the concentration needed to halve the response being measured. High values mean lower potency, low ones higher potency. What is called EC50 is the concentration at which the effect is half-maximal. A high value points to a need for much substance. With `COc1cccn2c(-c3cc4c(c5c3CCNC5=O)Nc3ccc(N5CCOCC5)cc3C4(C)C)cnc12` [Example 13], the results for the IC50 in test [1] and in test [3] were 24.4 nM and 9.32 nM, respectively. Further, in test [2] (setting [4]), the response was half-maximal at 3.12 nM (EC50).

In test [1], `COc1cccc2c(-c3nc4c(c5c3CCNC5=O)Nc3ccc(N5CCOCC5)cc3C4(C)C)cnn12` [Example 15] had an IC50 of 72.2 nM. Moreover, the concentration giving a half-maximal response (EC50) in test [2] (Anti-CD3/Anti-CD28, 48 hours, IL-2 ELISA) worked out at 3.95 nM.

Compound `CC1(C)c2cc(N3CCOCC3)ccc2Nc2c1cc(-c1cncc(N3CCOCC3)c1)c1c2C(=O)NC1` [Example 85] registered an EC50 in test [2] (setting [4]) of 69.4 nM. The compound further returned an IC50 in test [3] of 36.2 nM.

Source of the values: US20260355217A1, “HPK1 INHIBITOR, PREPARATION METHOD THEREFOR, AND USE THEREOF” (Beijing Earthwise Technology Co., Ltd., priority 2022, published 2026).
